Measured values as given in US6416585B1, “Method for crystallizing polyols and sugars” (Vomm Chemipharma S.r.l., priority 1999, dated 2002).

Experiment: solubility of the crystallized granular sorbitol compared with the prior art
Assay type: physicochemical
Details: sorbitol granules of Example 1 after two hours long maturation; in comparison with the prior art

solubility: definitely improved
SMILES: OC[C@@H](O)[C@@H](O)[C@H](O)[C@@H](O)CO [sorbitol granules, sorbitol]
